Reference: patent US11298348B2, “Combination treatment of sarcoglycanopathies” (INSERM (INSTITUT NATIONAL DE LA SANTE ET DE LA RECHERCHE …, priority 2018, dated 2022)

Experiments:
[1] = target: T1, R77C-α-SG (Homo sapiens, UniProt Q16586, R77C); assay: Western blot and densitometry of α-SG content in βγδ-cells transiently expressing R77C-α-SG; format: cell-based; details: single corrector, C17 10 μM or C4 5 μM, 24 hours
T1 construct: The full-length cDNA encoding human α-sarcoglycan cloned in the pcDNA3 mammalian expression vector; expressed in transfected cells; host or cells: βγδ-cells (HER911 cells stably expressing β-, γ- and δ-sarcoglycan)
T1 sequence (Q16586 24-387 R77C): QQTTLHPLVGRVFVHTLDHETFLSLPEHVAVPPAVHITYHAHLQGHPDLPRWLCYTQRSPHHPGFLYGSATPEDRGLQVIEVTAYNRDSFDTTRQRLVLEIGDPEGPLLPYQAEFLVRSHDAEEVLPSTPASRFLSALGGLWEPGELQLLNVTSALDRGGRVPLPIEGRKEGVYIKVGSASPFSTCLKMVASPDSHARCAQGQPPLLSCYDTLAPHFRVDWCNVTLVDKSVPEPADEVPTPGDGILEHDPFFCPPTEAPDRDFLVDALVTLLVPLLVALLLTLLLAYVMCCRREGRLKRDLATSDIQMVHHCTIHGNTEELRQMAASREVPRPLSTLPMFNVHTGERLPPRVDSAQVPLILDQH
Experimental: (§1) For transient expression, HEK 293 cells were seeded at 50,000 cells/cm2 and transfected the day after with Transit293 (MirusBio) according to manufacturer's instruction. Twenty-four hours after transfection, medium was replaced with DMEM supplemented with 2% FBS containing the indicated concentration of correctors (dissolved in DMSO) or with DMSO alone (final DMSO concentration 0.1%). HER911 or βγδ-cells cells were seeded at 50,000 cells/cm2 and transfected the day after with 9 μl of Fugene HD Transfection Reagent (E2312 from Promega) and 3 μg of plasmid coding for wild type or mutated α-SG. MG132 was added 8 hours before cell lysis, CFTR correctors were added 24 hours before cell lysis or IF assay (transfected HEK293, V247M cells, HER911 and βγδ-cells) and 24-96 hours before myotubes lysis, treatment with CHX or IF assay.
After treatments, cells were washed twice with ice cold PBS and lysed with 5% sodium deoxycholate supplemented with complete protease inhibitor (Sigma-Aldrich).
Protein lysates were quantified by the bicinchoninic-acid protein assay kit (Thermo Scientific), according to manufacturer's instructions. […] After 1-hour incubation with donkey anti-rabbit IRDye680 and anti-mouse IRDye800 antibodies (EuroBio) at room temperature, proteins were detected by fluorescence in an Odissey imaging system (Li-Cor) following the manufacturer's instructions. […]

[2] = target: T1, R77C-α-SG; assay: Immunofluorescence of membrane α-SG in intact βγδ-cells expressing R77C-α-SG (confocal, ImageXpress); format: cell-based; details: single corrector, 24 hours
Experimental: as §1
Immunofluorescence-confocal analyses were performed either in intact cells (not permeabilized) or in permeabilized cells. For the former condition, cells, grown on polylysine-treated glasses, at the end of treatments were incubated for 30 minutes at 4° C., then gently washed twice with ice-cold PBS and incubated with primary antibodies for 5 hours at 4° C. […]
Quantification of the mean fluorescence intensity of membrane staining of […] transfected with R77C-α-SG was performed by using ImageXpress microscope system (Molecular Devices). […]

Structure (SMILES): COc1ccc(Cl)cc1Nc1nc(-c2sc(NC(=O)c3ccccc3)nc2C)cs1 [C4, N-[2-(5-Chloro-2-methoxy-phenylamino)-4′-methyl-[4,5′]bithiazolyl-2′-yl]-benzamide]
- R77C-α-SG protein content [1]: three to four-fold increase
- localization of rescued R77C-α-SG at the plasma membrane (confocal IF, not-permeabilized cells) [2]: intense cell-surface staining

Structure (SMILES): COc1ccc(Cl)cc1Nc1nc(-c2sc(NC(=O)C(C)(C)C)nc2C)cs1 [C17, N-(2-(5-chloro-2-methoxyphenylamino)-4′-methyl-4,5′-bithiazol-2′-yl)pivalamide]
- R77C-α-SG protein content [1]: three to four-fold increase
- localization of rescued R77C-α-SG at the plasma membrane (confocal IF, not-permeabilized cells) [2]: intense cell-surface staining
